Laboratory results taken from ChEMBL document CHEMBL1127282, “Structure-activity relationships in the amino acid sidechain of L-692,429” (Bioorg Med Chem Lett, 1994).
The source made the active and inactive calls. The calls are words filed in the database; no cut-off is given here.

Columns and labels:
[1] = pKa value was determined; assay type: physicochemical
Rattus norvegicus = species on record: Rattus norvegicus; test: In vitro effective dose was measured for the growth hormone release in rat pituitary cells; Inactive at 20 ug/mL; assay type: functional, cell-based; conditions: Pituitary gland cell
[2] = biological target: Growth hormone secretagogue receptor type 1 (Rattus norvegicus) (UniProt O08725); test: In vitro effective dose was measured for the growth hormone release in rat pituitary cells; assay type: functional, cell-based; conditions: Pituitary gland cell
Chain of Growth hormone secretagogue receptor type 1 (Rattus norvegicus) (O08725 whole entry): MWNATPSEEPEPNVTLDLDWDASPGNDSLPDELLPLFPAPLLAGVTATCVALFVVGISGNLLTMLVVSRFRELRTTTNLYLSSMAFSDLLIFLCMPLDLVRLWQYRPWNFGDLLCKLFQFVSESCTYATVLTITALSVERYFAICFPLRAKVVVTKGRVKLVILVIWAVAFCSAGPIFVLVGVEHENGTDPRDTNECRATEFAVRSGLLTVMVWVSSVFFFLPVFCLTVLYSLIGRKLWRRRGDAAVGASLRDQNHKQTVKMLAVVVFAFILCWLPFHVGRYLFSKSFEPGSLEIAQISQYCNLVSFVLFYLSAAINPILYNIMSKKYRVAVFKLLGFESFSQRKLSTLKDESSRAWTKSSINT

CC(C)(N)CC(=O)N[C@@H]1CCc2ccccc2N(Cc2ccc(-c3ccccc3-c3nnn[nH]3)cc2)C1=O
pKa [1]: 9.3

CC(C)(CC(=O)N[C@@H]1CCc2ccccc2N(Cc2ccc(-c3ccccc3-c3nn[nH]n3)cc2)C1=O)NC(=O)OC(C)(C)C
ED50 (Rattus norvegicus): inactive

CC(=O)NC(C)(C)CC(=O)N[C@@H]1CCc2ccccc2N(Cc2ccc(-c3ccccc3-c3nn[nH]n3)cc2)C1=O
ED50 (Rattus norvegicus): inactive

CC[C@@H](N)C(=O)N[C@@H]1CCc2ccccc2N(Cc2ccc(-c3ccccc3-c3nn[nH]n3)cc2)C1=O
ED50 [2]: 0.3 µM

CC(C)(CC(=O)N[C@@H]1CCc2ccccc2N(Cc2ccc(-c3ccccc3-c3nn[nH]n3)cc2)C1=O)NCc1ccccc1
ED50 [2]: 65 µM

CC(C)CNC(C)(C)CC(=O)N[C@@H]1CCc2ccccc2N(Cc2ccc(-c3ccccc3-c3nn[nH]n3)cc2)C1=O
ED50 [2]: 85 µM

C[C@@H](N)C(=O)N[C@@H]1CCc2ccccc2N(Cc2ccc(-c3ccccc3-c3nn[nH]n3)cc2)C1=O (stereo in doubt; 11)
ED50 [2]: 1.4 µM

CC(C)(CC(=O)N[C@@H]1CCc2ccccc2N(Cc2ccc(-c3ccccc3-c3nn[nH]n3)cc2)C1=O)NCCN
ED50 [2]: 230 µM

CC(C)(C)CC(=O)N[C@@H]1CCc2ccccc2N(Cc2ccc(-c3ccccc3-c3nn[nH]n3)cc2)C1=O
ED50 (Rattus norvegicus): inactive

CC(C)(CC(=O)N[C@@H]1CCc2ccccc2N(Cc2ccc(-c3ccccc3-c3nn[nH]n3)cc2)C1=O)NCCO
ED50 [2]: 30 µM

CC(C)(N)CCC(=O)N[C@@H]1CCc2ccccc2N(Cc2ccc(-c3ccccc3-c3nn[nH]n3)cc2)C1=O
ED50 [2]: 3 µM

C[C@@H](O)CNC(C)(C)CC(=O)N[C@@H]1CCc2ccccc2N(Cc2ccc(-c3ccccc3-c3nnn[nH]3)cc2)C1=O [L-692585]
pKa [1]: 9.1

CCCNC(C)(C)CC(=O)N[C@@H]1CCc2ccccc2N(Cc2ccc(-c3ccccc3-c3nn[nH]n3)cc2)C1=O
ED50 [2]: 50 µM

CC(=O)N[C@@H]1CCc2ccccc2N(Cc2ccc(-c3ccccc3-c3nn[nH]n3)cc2)C1=O
ED50 (Rattus norvegicus): inactive

NCC(=O)N[C@@H]1CCc2ccccc2N(Cc2ccc(-c3ccccc3-c3nn[nH]n3)cc2)C1=O
ED50 [2]: 9 µM

C[C@@H](O)CNC(C)(C)CC(=O)N[C@@H]1CCc2ccccc2N(Cc2ccc(-c3ccccc3-c3nn[nH]n3)cc2)C1=O
ED50 [2]: 3 µM

N[C@@H]1CCc2ccccc2N(Cc2ccc(-c3ccccc3-c3nn[nH]n3)cc2)C1=O
ED50 [2]: 9 µM

C[C@@H](N)C(=O)N[C@@H]1CCc2ccccc2N(Cc2ccc(-c3ccccc3-c3nn[nH]n3)cc2)C1=O (stereo in doubt; 12)
ED50 [2]: 0.1 µM

CC(C)(N)CC(=O)N[C@@H]1CCc2ccccc2N(Cc2ccc(-c3ccccc3-c3nn[nH]n3)cc2)C1=O
ED50 [2]: 0.06 µM

CC(C)(CN)C(=O)N[C@@H]1CCc2ccccc2N(Cc2ccc(-c3ccccc3-c3nn[nH]n3)cc2)C1=O
ED50 [2]: 3 µM

CC(C)(N)C(=O)N[C@@H]1CCc2ccccc2N(Cc2ccc(-c3ccccc3-c3nn[nH]n3)cc2)C1=O
pKa [1]: 7.9 | ED50 [2]: 0.03 µM

NCCC(=O)N[C@@H]1CCc2ccccc2N(Cc2ccc(-c3ccccc3-c3nn[nH]n3)cc2)C1=O
ED50 [2]: 2 µM

N[C@H](Cc1ccccc1)C(=O)N[C@@H]1CCc2ccccc2N(Cc2ccc(-c3ccccc3-c3nn[nH]n3)cc2)C1=O
ED50 [2]: 2 µM

C[C@H](O)CNC(C)(C)CC(=O)N[C@@H]1CCc2ccccc2N(Cc2ccc(-c3ccccc3-c3nn[nH]n3)cc2)C1=O
ED50 [2]: 7 µM
